Assay results from US20170268001A1, “RNAS WITH TUMOR RADIO/CHEMO-SENSITIZING AND IMMUNOMODULATORY PROPERTIES AND METHODS OF THEIR PREPARATION AND APPLICATION” (THE UNIVERSITY OF CHICAGO, priority 2016, published 2017).

T1: RIG-I (Homo sapiens, UniProt O95786)
T1 construct: HEK293 cells overexpressing either the full length RIG-I; host or cells: HEK293; HCT116 also for the qRT-PCR validation
T1 sequence (O95786 1-925): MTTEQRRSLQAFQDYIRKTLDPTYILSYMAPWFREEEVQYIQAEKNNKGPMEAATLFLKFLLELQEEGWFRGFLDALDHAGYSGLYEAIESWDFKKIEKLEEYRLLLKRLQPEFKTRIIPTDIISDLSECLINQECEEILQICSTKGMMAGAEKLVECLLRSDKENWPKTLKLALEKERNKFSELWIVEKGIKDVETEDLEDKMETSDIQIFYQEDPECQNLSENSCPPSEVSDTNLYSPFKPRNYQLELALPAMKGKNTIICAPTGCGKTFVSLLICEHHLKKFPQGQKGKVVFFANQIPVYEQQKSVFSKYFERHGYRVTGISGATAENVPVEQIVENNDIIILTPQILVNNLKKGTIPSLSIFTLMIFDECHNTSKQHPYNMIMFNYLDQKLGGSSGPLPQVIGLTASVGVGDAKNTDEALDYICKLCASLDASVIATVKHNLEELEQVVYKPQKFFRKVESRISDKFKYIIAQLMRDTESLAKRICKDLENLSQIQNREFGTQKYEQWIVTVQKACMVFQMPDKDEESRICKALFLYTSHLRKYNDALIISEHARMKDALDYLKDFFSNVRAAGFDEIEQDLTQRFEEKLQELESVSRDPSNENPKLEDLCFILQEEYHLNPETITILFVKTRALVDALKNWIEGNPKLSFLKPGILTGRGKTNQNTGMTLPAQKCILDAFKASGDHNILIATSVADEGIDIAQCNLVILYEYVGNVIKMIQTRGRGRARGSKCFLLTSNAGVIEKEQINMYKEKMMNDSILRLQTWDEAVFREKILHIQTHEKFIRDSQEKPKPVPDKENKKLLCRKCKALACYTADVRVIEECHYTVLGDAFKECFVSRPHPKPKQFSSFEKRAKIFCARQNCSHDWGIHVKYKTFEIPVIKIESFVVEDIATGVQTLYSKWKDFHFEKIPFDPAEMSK


Experiments:
[1] = biological target: T1, RIG-I; assay: UV cross-linking with quantitative real-time PCR (CLIP-PCR) of RIG-I complexes; type: binding
Experimental: Graphic representation indicating the distribution of non-coding and repetitive RNA molecules bound to RIG-I following exposure to IR as compared to total irradiated cellular RNA. Transcripts were mapped to reference genomes using RepeatMasker. See Methods for further details. […] Cells were UV crosslinked at 150 mJ/cm^2 48 hours post-IR treatment prior to cell lysis. […] FIG. 29H show IFN-b levels in culture supernatant from ICR RIG-I^+/+ and primary MEFs 24 hours post-stimulation with the same set of synthetic U1 oligonucleotides used in (FIG. 29G) The amount of U1 synthetic oligonucleotides used in all stimulation experiments was 1 μg. P values were determined using unpaired Student's t-test. Error bars are SEM. ***P<0.005.
Technically, identification of RNAs was performed as follows: HEK293 cells were transiently transfected with 3×FLAG-tagged full-size RIG-I in pEF-BOS vector (Addgene; Cambridge, Mass.). Twenty-four hours post-transfection, cells were either mock-irradiated or exposed to IR (6 Gy). Forty-eight hours post-IR, cells were lysed with a modified lysis buffer (50 mM Tris-Cl pH 7.5, 0.15 M NaCl, 0.1% NP-40, 1.0% Triton X-100, 1 mM EDTA pH8.0, 1 mM EGTA pH8.0, 10% Glycerol, 2.5 mM MgCl2, 1 mM DTT, 0.1 mM ATP, and 1× Halt Protease Inhibitor) and incubated on ice for 1 hour. Cell lysates were separated from cell debris by centrifugation at 12,000 rpm at 4° C. Protein concentration was measured by BCA kit. Anti-FLAG monoclonal antibody was added to the cell lysate at a 1:500 dilution, and incubated overnight at 4° C. Protein G sepharose beads were added to the lysates and incubated for at least 2 hours at 4° C. Beads containing the antibody-RIG-I complexes were washed five times in wash buffer (50 mM Tris-Cl pH 7.5, 0.15 M NaCl, 1 mM MgCl2, 0.05% NP-40, 1 mM DTT) and proteins were eluted from the beads using a soft elution buffer (0.5% SDS, 0.1% Tween-20, 50 mM Tris pH 8.0) for 10 minutes at room temperature with vortexing every 2-3 minutes. Proteinase K was added to the eluates and incubated at 50° C. for 45 minutes. Trizol reagent was then added to the solution, and RNA bound to RIG-I was purified following manufacturer's protocol. RNA quality was analyzed using an Agilent Bioanalyzer 2100 with Pico Series II cartridges. RNA yield was measured using the Qubit RNA Broad Range kit. For qRT-PCR validation experiments of RIG-I pulled down RNA, UV cross-linking (2 doses at 150 mJ/cm^2) was performed on HEK293 and HCT116 overexpressing RIG-I prior to cell lysis. The same protocol for pulldown and RNA purification experiments was performed as described above.

[2] = test system: MC38 tumors; assay: MC38 tumor growth after IR (20Gy) plus intratumoral RNA with jetPEI; type: in vivo, mouse; conditions: in combination with jetPEI lipid and IR (20Gy); injected 1, 7 and 14 days post-IR
Experimental: To further test ability of delivered RNAs to affect tumor growth we irradiated MC38 tumors at 20Gy and injected irradiated tumors with stem-loop regions of U1 or U2 at 1, 7 and 14 dayspost-IR. Tumors were grown for 17 days post IR and each 3rd day were measured as described in. As is shown in FIG. 40, injection of stem-loop structures of U1 in combination with jetPEI lipid and IR led to the 2-fold suppression of tumor growth as compared with IR only.
To further test ability of delivered synthetic RNAs (M5 and M8) to affect tumor growth we irradiated MC38 tumors at 20Gy and injected irradiated tumors 1, 7 and 14 dayspost-IR. Tumors were grown for 17 days post IR and each 3rd day were measured as described in. Injection of synthetic RNAs, M5 and M8, in combination with jetPEI lipid and IR led to the 2-fold suppression of tumor growth as compared with IR only.

Row | Molecule | enrichment in RIG-I: RNA complexes in irradiated samples ([1]; HCT116 cells overexpressing RIG-I) | enrichment in purified RIG-I complexes, irradiated vs non-irradiated ([1]; HEK293 expressing WT RIG-I, IR 6 Gy) | binding to RIG-I ([1]; RIG-I: RNA complexes isolated from HCT116 cells overexpressing RIG-I) | suppression of tumor growth as compared with IR only [2]
1 | U2: snRNA, SEQ ID NO:21 | significant enrichment | 6 fold | – | –
2 | M5: rbRNA, RIG-I agonist, 81 nucleotides, SEQ ID NO:26 (nucleic acid, listed as DNA, chemistry not given here) GACGAAGACCACAAAACCAGATAAAAAATTATTTTTTATCTGGTTTTGTGGTCTTCGTCTATAGTGAGTCGTATTAATTTC | – | – | binds | 2 fold
